Assay results from ChEMBL document CHEMBL5154875, “Discovery of Potent Orally Bioavailable WD Repeat Domain 5 (WDR5) Inhibitors Using a Pharmacophore-Based Optimization” (J Med Chem, 2022).
In brackets after ≈: the same amount, converted by molar mass. Blank lines part the entries; values can stand above or below the molecule they belong to.

Key:
[1] = Kinetic solubility of compound in PBS at pH 7.4 at 100 uM incubated for 1 hr by UV-visible spectroscopy analysis; assay type: physicochemical
[2] = Metabolic stability of compound in rat liver microsome assessed as intrinsic clearance at 1 uM measured upto 45 mins by LCMS analysis; assay type: ADME, microsomes
[3] = Cmax in CD-1 mouse at 10 mg/kg, po measured 0.083 to 24 hrs post-treatment by LC-MS/MS analysis; assay type: ADME, organism-based; design: time lower 0.083 hrs, dose 10 mg/kg, time upper 24 hrs, route po; details: in vivo
[4] = Metabolic stability of compound in rat liver microsome assessed as half life at 1 uM measured upto 45 mins by LCMS analysis; assay type: ADME, microsomes
K562 = assay: Anti-proliferative activity against human K562 cells assessed as inhibition of cell proliferation incubated for 5 days by Cell Titre Glo luminescent assay; assay type: functional; details: time 5 day
[5] = AUC (0 to infinity) in CD-1 mouse at 10 mg/kg, po measured 0.083 to 24 hrs post-treatment by LC-MS/MS analysis; assay type: ADME, organism-based; design: dose 10 mg/kg, time upper 24 hrs, time lower 0.083 hrs, route po; details: in vivo
[6] = AUC (0 to infinity) in CD-1 mouse at 3 mg/kg, iv measured 0.083 to 24 hrs post-treatment by LC-MS/MS analysis; assay type: ADME, organism-based; design: time upper 24 hrs, time lower 0.083 hrs, dose 3 mg/kg, route iv; details: in vivo; for AUC: mouse
MOLM-13 = assay: Anti-proliferative activity against human MOLM-13 cells assessed as inhibition of cell proliferation incubated for 5 days by Cell Titre Glo luminescent assay; assay type: functional; details: time 5 day
[7] = Volume of distribution at steady state in CD-1 mouse at 3 mg/kg, iv measured 0.083 to 24 hrs post-treatment by LC-MS/MS analysis; assay type: ADME, organism-based; details: in vivo, time 0.083-24 hrs; for Vdss: mouse, iv, 3 mg/kg
[8] = Oral bioavailability in CD-1 mouse at 10 mg/kg measured 0.083 to 24 hrs post-treatment by LC-MS/MS analysis; assay type: ADME, organism-based; details: in vivo, time 0.083-24 hrs
[9] = Clearance in CD-1 mouse at 3 mg/kg, iv measured 0.083 to 24 hrs post-treatment by LC-MS/MS analysis; assay type: ADME, organism-based; details: in vivo, time 0.083-24 hrs
MV4-11 [10] = assay: Anti-proliferative activity against human MV4-11 cells assessed as inhibition of cell proliferation incubated for 5 days by Cell Titre Glo luminescent assay; assay type: functional; details: time 5 day
[11] = biological target: T1, WD repeat-containing protein 5 (Homo sapiens, UniProt P61964); assay: Inhibition of 5- FAM labeled tracer binding to N-terminal His6-SUMO-tagged WDR5 (24 to 334 residues) (unknown origin) expressed in Escherichia coli Rosetta 2 (DE3) cells incubated for 3 hrs by fluorescence polarization based competitive binding assay
[12] = Half life in CD-1 mouse at 10 mg/kg, po measured 0.083 to 24 hrs post-treatment by LC-MS/MS analysis; assay type: ADME, organism-based; details: mouse, in vivo, po, 10 mg/kg, time 0.083-24 hrs
[13] = biological target: T1, WD repeat-containing protein 5; assay: Competitive binding affinity to N-terminal 6xHis-SUMO-tagged human WDR5 (22 to 334 residues) expressed in Escherichia coli BL21-Gold (DE3) cells assessed as inhibition constant using 10-mer-Thr-FAM peptide as substrate incubated for 1 hr by Lantha Screen based TR-FRET assay
MV4-11 [14] = assay: Anti-proliferative activity against human MV4-11 cells harboring MLL fusion protein assessed as inhibition of cell viability treated for 72 hrs by CCK-8 assay; assay type: functional, cell-based; details: MV4-11, 72 h
[15] = biological target: Histone-lysine N-methyltransferase 2A/WDR5 (Homo sapiens, UniProt P61964); assay: Inhibition of MLL1-WDR5 (unknown origin) interaction using 10mer-Thr-FAM as substrate by fluorescence polarization based competitive binding assay; assay type: protein assay
[16] = biological target: T1, WD repeat-containing protein 5; assay: Inhibition of N-terminal 6xHis-SUMO-tagged human WDR5 (22 to 334 residues) expressed in Escherichia coli BL21-Gold (DE3) cells assessed as inhibition constant incubated for 1 hr by TR-FRET assay
[17] = Kinetic aqueous solubility of compound at pH 7.4; assay type: physicochemical; details: buffer
[18] = Acute toxicity in CD-1 mouse assessed as reduced locomotive activity at 3 mg/kg, iv measured 0.083 to 24 hrs post-treatment by LC-MS/MS analysis; assay type: organism-based; details: in vivo, time 0.083-24 hrs
[19] = Acute toxicity in CD-1 mouse assessed as lowered body temperature at 3 mg/kg, iv measured 0.083 to 24 hrs post-treatment by LC-MS/MS analysis; assay type: organism-based; details: in vivo, time 0.083-24 hrs
[20] = Effective permeability of compound in PBS at pH 7.4 at 100 uM incubated for 5 hrs by PAMPA assay; assay type: ADME; details: pH 7.4, 5 h
[21] = Clearance in CD-1 mouse at 3 mg/kg, iv measured 0.083 to 24 hrs post-treatment by LC-MS/MS analysis; details: in vivo, BLD = below limit of detection
[22] = Acute toxicity in CD-1 mouse assessed as lethality at 3 mg/kg, iv measured 0.083 to 24 hrs post-treatment by LC-MS/MS analysis; assay type: organism-based; details: in vivo, time 0.083-24 hrs

Structure (SMILES): CCn1cc(-c2cc(Cn3ccnc3C)cc3c2CCN([C@@H](C)c2cc(OC)ccn2)C3=O)c(C(F)(F)F)n1 (stereo in doubt; 38)
solubility kinetic at 1 h, 100 µM ([1]; PBS, pH 7.4, read-out: Kinetic_solubility): 86 µM (≈ 46.3 µg/mL) | microsomal CLint at 1 µM ([2]; liver microsomes, read-out: CLH): 31 µL/min/mg | Cmax ([3]; CD-1, mouse, read-out: Cmax): 2010 ng/mL | half-life at 1 µM ([4]; liver microsomes): 22 min | GI50 (K562; 120 h): 1900 nM | AUC(0-inf) ([5]; CD-1, mouse): 1710 ng·h/mL | AUC(0-inf) ([6]; CD-1, mouse): 707 ng·h/mL | GI50 (MOLM-13; 120 h): 19 nM | Vd ([7]; CD-1, mouse, read-out: Vdss): 2.3 L/kg | bioavailability ([8]; CD-1, mouse): 73% | clearance [9]: 76 mL/min/kg | GI50 (MV4-11 [10]; 120 h): 9.7 nM

Ki [11]: < 1 nM
Structure (SMILES): CC[C@@H]1NC(=O)[C@H](CCCNC(=N)NC)NC(=O)[C@](C)(NC(=O)C(C)C)CCNC(=O)[C@@H](c2ccccc2)NC1=O

Structure (SMILES): CCn1cc(-c2cc(Cn3ccnc3C)cc3c2CCN([C@@H](C)c2cc(OC)ccn2)C3=O)c(C(F)(F)F)n1 (stereo in doubt; 34)
Kinetic_solubility ([1]; buffer, pH 7.4, 1 h, 100 µM): 80 µM | CLH ([2]; microsomes, 0.75 h, 1 µM): 60 µL/min/mg | Cmax ([3]; mouse): 279 ng/mL | t1/2 ([4]; microsomes, 0.75 h, 1 µM): 12 min | GI50 (K562; Homo sapiens, K562, 120 h): 2200 nM | t1/2 [12]: 72 min | AUC ([5]; mouse): 397 ng·h/mL | AUC [6]: 429 ng·h/mL | GI50 (MOLM-13; Homo sapiens, MOLM-13, 120 h): 26 nM | Vdss [7]: 3.8 L/kg | F ([8]; mouse, po, 10 mg/kg): 28% | Ki [13]: < 0.02 nM | GI50 (MV4-11 [10]; Homo sapiens, MV4-11, 120 h): 11 nM

Structure (SMILES): CN1CCN(c2cc(F)c(-c3ccc(NC(=O)N(C)C)cc3)cc2Nc2ncnc(Cl)c2N)CC1
IC50 (MV4-11 [14]): 12600 nM | IC50 [15]: 29 nM

Structure (SMILES): COc1cc(CN2CCc3c(cc(Cn4ccn(C)c4=N)cc3-c3ccc(F)cc3C)C2=O)cc(OC)c1
Ki [16]: < 0.02 nM | Kinetic_solubility [17]: 29 µM | GI50 (K562; Homo sapiens, K562, 120 h): 8000 nM | Activity [18]: Toxic | AUC [6]: 642 ng·h/mL | Activity [19]: Toxic | GI50 (MOLM-13; Homo sapiens, MOLM-13, 120 h): 78 nM | Vdss [7]: 16 L/kg | permeability [20]: < 0.6 10^-6 cm/s | CL [21]: Bld | Activity [22]: Toxic | GI50 (MV4-11 [10]; Homo sapiens, MV4-11, 120 h): 38 nM
